# “Also recorded” adds a separate entry of the source.
# System: HLA alleles of class II
# Assay: Affinity of epitopes for HLA alleles of class II
# Assay type: binding, human
# Settings: H2B-II core epitopes, Table 1
# From the text: The multiepitopic peptide compounds (24 to 40-mer), having a high affinity with a maximized number of HLA molecules of class I and of class II, such as the affinities for the alleles HLA of class I and HLA of class II of the epitopes in the peptides of the sequences SEQ ID NO: 22, 23, 65, 66, 69, 73, 77, 96, 97, 137, 138, and 157, 185, have a high immunoprevalent potential corresponding to an optimal vaccine coverage, in particular for the populations concerned. The degree of coverage of the peptide compounds of the invention show a very high added value compared with the peptides of the prior art.
row,Sequence,Affinity HLA alleles of class II
1,YVGRSLKAI (Leishmania major) [SEQ ID NO: 54],"HLA-DRB1*08:02,; also recorded: HLA-DPA1*02:01/; also recorded: DPB1*01:01"
2,INAQMSMSH (Leishmania major) [SEQ ID NO: 44],"HLA-DRB1*04:01,; also recorded: HLA-DRB1*04:05,; also recorded: HLA-DRB1*09:01,; also recorded: HLA-DRB1*11:01,; also recorded: HLA-DRB1*15:01,; also recorded: HLA-DRB4*01:01,; also recorded: HLA-DRB5*01:01"
3,VGRSLKAIN (Leishmania major) [SEQ ID NO: 51],"HLA-DRB1*03:01,; also recorded: HLA-DRB1*04:05,; also recorded: HLA-DRB1*08:02,; also recorded: HLA-DRB1*11:01"
4,PKRSWNVYV (Leishmania major) [SEQ ID NO: 48],"HLA-DRB1*13:02,; also recorded: HLA-DRB1*15:01"
5,AQMSMSHRT (Leishmania major) [SEQ ID NO: 42],HLA-DRB1*07:01

# Same assay, conditions: H2B-II peptides, Table 1
row,Sequence,Concatenation affinity for the HLA alleles of class II
1,INAQMSMSHRTMKIV (Leishmania major) [SEQ ID NO: 41],"HLA-DRB1*04:01, HLA-DRB1*15:01, HLA-DRB1*05:01,; also recorded: HLA-DRB1*03:01, HLA-DRB1*09:01, HLA-DRB1*11:01,; also recorded: HLA-DRB1*01:01, HLA-DRB4*01:01, HLA-DRB1*07:01,; also recorded: HLA-DRB1*13:02"
2,RSLKAINAWMSMSHR (RSLKAINAQMSMSHR; Leishmania major) [SEQ ID NO: 36],"HLA-DRB1*04:01, HLA-DRB1*15:01, HLA-DRB1*05:01,; also recorded: HLA-DRB1*01:01, HLA-DRB1*04:05, HLA-DRB1*07:01,; also recorded: HLA-DRB1*08:02, HLA-DRB1*09:01, HLA-DRB1*11:01,; also recorded: HLA-DRB4*01:01,"
3,VYVGRSLKAINAQMS (Leishmania major) [SEQ ID NO: 32],"HLA-DRB1*01:01, HLA-DRB1*04:05, HLA-DRB1*07:01,; also recorded: HLA-DRB4*01:01, HLA-DRB1*04:01, HLA-DRB1*09:01,; also recorded: HLA-DRB1*03:01, HLA-DRB1*11:01, HLA-DRB1*15:01,; also recorded: HLA-DRB1*08:02"
4,KPKRSWNVYVGRSLK (Leishmania major) [SEQ ID NO: 25],"HLA-DRB5*01:01, HLA-DRB1*01:01, HLA-DRB1*07:01,; also recorded: HLA-DRB1*09:01, HLA-DRB1*15:01"
5,YVGRSLKAINAQMSM (Leishmania major) [SEQ ID NO: 33],"HLA-DRB1*04:01, HLA-DRB1*11:01, HLA-DRB1*08:02,; also recorded: HLA-DRB1*01:01, HLA-DRB1*04:05, HLA-DRB1*07:01,; also recorded: HLA-DRB1*09:01, HLA-DRB4*01:01, HLA-DRB5*01:01,"
6,NVYVGRSLKAINAQM (Leishmania major) [SEQ ID NO: 31],"HLA-DRB1*04:01, HLA-DRB4*01:01, HLA-DRB1*03:01,; also recorded: HLA-DRB1*04:05, HLA-DRB1*11:01, HLA-DRB1*01:01,; also recorded: HLA-DRB1*09:01, HLA-DRB1*15:01, HLA-DRB1*08:02"
7,PKRSWNVYVGRSLKA (Leishmania major) [SEQ ID NO: 26],"HLA-DRB5*01:01, HLA-DRB1*01:01, HLA-DRB1*11:01,; also recorded: HLA-DRB5*13:02, HLA-DRB5*07:01, HLA-DRB5*09:01,; also recorded: HLA-DRB5*15:01"
8,GRSLKAINAQMSMSH (Leishmania major) [SEQ ID NO: 35],"HLA-DRB1*15:01, HLA-DRB1*01:01, HLA-DRB1*04:05,; also recorded: HLA-DRB1*07:01, HLA-DRB1*08:02, HLA-DRB1*09:01,; also recorded: HLA-DRB1*11:01, HLA-DRB4*01:01, HLA-DRB5*01:01,; also recorded: HLA-DRB1*04:01, HLA-DRB1*13:02"
9,VGRSLKAINAWMSMS (VGRSLKAINAQMSMS; Leishmania major) [SEQ ID NO: 34],"HLA-DRB1*01:01, HLA-DRB1*04:05, HLA-DRB1*07:01,; also recorded: HLA-DRB1*09:01, HLA-DRB4*01:01, HLA-DRB5*01:01,; also recorded: HLA-DRB1*04:01, HLA-DRB1*08:02, HLA-DRB1*11:01,; also recorded: HLA-DRB1*13:02"
10,WNVYVGRSLKAINAQ (Leishmania major) [SEQ ID NO: 30],"HLA-DRB5*01:01, HLA-DRB1*04:05, HLA-DPA1*03:01/; also recorded: DPB1*04:02, HLA-DRB1*01:01, HLA-DRB1*03:01,; also recorded: HLA-DRB1*04:01, HLA-DRB1*11:01, HLA-DRB1*07:01,; also recorded: HLA-DRB9*01:01, HLA-DRB1*15:01, HLA-DPA1*02:01/; also recorded: DPB1*01:01, HLA-DRB1*08:02"
11,KAINAQMSMSHRTMK (Leishmania major) [SEQ ID NO: 39],"HLA-DRB1*07:01, HLA-DRB1*04:01, HLA-DRB1*04:05,; also recorded: HLA-DRB1*09:01, HLA-DRB1*11:01, HLA-DRB1*15:01,; also recorded: HLA-DRB5*01:01, HLA-DRB4*01:01, HLA-DRB1*03:01,"

# Same assay, conditions: LmLRAB-IIA core, Table 2
row,Sequence,Concatenation affinity for HLA alleles of class II
1,LHSVVGRHL (Leishmania major) [SEQ ID NO: 90],HLA-DRB1*11:01; also recorded: HLA-DRB1*15:01; also recorded: HLA-DRB4*01:01; also recorded: HLA-DRB5*01:01; also recorded: HLA-DRB1*07:01; also recorded: HLA-DRB1*09:01
2,HLSIVADHM (Leishmania major) [SEQ ID NO: 88],HLA-DRB1*01:01

# Same assay, conditions: LmLRAB-IIA peptides, Table 2
row,Sequence,Concatenation affinity for HLA alleles of class II
1,RHLSIVADHMPLHDQ (RHLSIVADHMPHLDQ; Leishmania major) [SEQ ID NO: 87],"HLA-DRB3*01:01,; also recorded: HLA-DRB1*03:01,; also recorded: HLA-DRB1*13:02"
2,SVVGRHLSIVADHMP (Leishmania major) [SEQ ID NO: 83],HLA-DRB1*15:01
3,VGRHLSIVADHMPHL (Leishmania major) [SEQ ID NO: 85],"HLA-DRB1*03:01,; also recorded: HLA-DRB3*01:01,; also recorded: HLA-DRB1*13:02,; also recorded: HLA-DRB1*15:01,"

# Same assay, conditions: LmlRAB-IIB core, Table 2
row,Sequence,Concatenation affinity for HLA alleles of class II
1,YSEVSAKTK (Leishmania major) [SEQ ID NO: 127],"HLA-DRB1*07:01,; also recorded: HLA-DRB5*01:01"
2,NAIVTSRKV (Leishmania major) [SEQ ID NO: 125],HLA-DRB1*07:01

# Same assay, conditions: LmlRAB-IIB peptides, Table 2
row,Sequence,Concatenation affinity for HLA alleles of class II
1,VTSRKQEEVFDLFT (Leishmania major) [SEQ ID NO: 118],"HLA-DRB1*03:01, HLA-DPA1*01:03/DPB1*02:01,; also recorded: HLA-DPA1*02:01/DPB1*05:01,; also recorded: HLA-DPA1*03:01/HLA-DPB1*04:02,; also recorded: HLA-DPA1*02:01/HLA-DPB1*14:01"
2,IVTSRKVQEEVFDLF (Leishmania major) [SEQ ID NO: 105],"HLA-DRB1*03:01, HLA-DRB1*11:01,; also recorded: HLA-DPA1*01:03/DPB1*02:01,; also recorded: HLA-DPA1*01/DPB1*04:01,; also recorded: HLA-DPA1*02:01/DPB1*05:01,; also recorded: HLA-DPA1*02:01/HLA-DPB1*14:01"
3,AIVTSRKVQEEVFDL (Leishmania major) [SEQ ID NO: 98],"HLA-DRB1*03:01, HLA-DRB1*11:01,; also recorded: HLA-DRB1*12:01"
4,TSRKVQEEVFDLFTD (Leishmania major) [SEQ ID NO: 115],"HLA-DRB1*03:01, HLA-DPA1*01:03/DPB1*02:01,; also recorded: HLA-DPA1*02:01/DPB1*05:01,; also recorded: HLA-DPA1*03:01/HLA-DPB1*04:02,; also recorded: HLA-DPA1*02:01/HLA-DPB1*14:01"
5,KGRSENAIVTSRKVQ (Leishmania major) [SEQ ID NO: 106],"HLA-DRB1*01:01, HLA-DRB1*07:01,; also recorded: HLA-DRB1*11:01, HLA-DRB1*12:01,; also recorded: HLA-DRB5*01:01"
6,NAIVTSRKVQEEVFD (Leishmania major) [SEQ ID NO: 109],"HLA-DRB1*03:01, HLA-DRB1*07:01,; also recorded: HLA-DRB1*08:02, HLA-DRB1*11:01,; also recorded: HLA-DRB1*12:01"

# Same assay, conditions: PSA KC-2.6 core, Table 3
row,Sequence,Concatenation affinity for HLA alleles of class II
1,RSGEGYFLT (listed as Leishmania infantum) [SEQ ID NO: 149],"HLA-DRB1*03:01,; also recorded: HLA-DRB3*01:01"

# Same assay, conditions: PSA KC-2.6 peptides, Table 3
row,Sequence,Concatenation affinity for HLA alleles of class II
1,GYFLTDEKTSLVYGD (listed as Leishmania infantum) [SEQ ID NO: 142],"HLA-DRB1*01:01, HLA-DRB1*03:01,; also recorded: HLA-DRB1*04:01, HLA-DRB1*07:01,; also recorded: HLA-DRB1*11:01, HLA-DRB3*01:01,; also recorded: HLA-DRB3*02:02,; also recorded: HLA-DPA1*02:01/DPB1*14:01,; also recorded: HLA-DPA1*03:01/DPB1*04:02"

# Same assay, conditions: PSA KC-2.7 core, Table 3
row,Sequence,Concatenation affinity for HLA alleles of class II
1,MIRDLDFSN (listed as Leishmania infantum) [SEQ ID NO: 176],"HLA-DRB1*03:01,; also recorded: HLA-DRB1*04:01,; also recorded: HLA-DRB1*04:05,; also recorded: HLA-DRB1*08:02"
2,IRDLDFSNM (listed as Leishmania infantum) [SEQ ID NO: 174],"HLA-DRB1*01:01,; also recorded: HLA-DRB4*01:01"
3,DFSNMGLLL (listed as Leishmania infantum) [SEQ ID NO: 171],"HLA-DPA1*01:03/; also recorded: DPB1*04:01,; also recorded: HLA-DPA1*03:01/; also recorded: DPB1*04:02"

# Same assay, conditions: PSA KC-2.7 peptides, Table 3
row,Sequence,Concatenation affinity for HLA alleles of class II
1,SGSDYSHSMIRDLDF (listed as Leishmania infantum) [SEQ ID NO: 167],"HLA-DRB1*01:01, HLA-DRB1*04:05,; also recorded: HLA-DRB1*07:01, HLA-DRB1*09:01,; also recorded: HLA-DRB5*01:01,; also recorded: HLA-DPA1*02:01/DPB1*14:01"
2,MPSGSDYSHSMIRDL (listed as Leishmania infantum) [SEQ ID NO: 163],"HLA-DRB1*04:05, HLA-DRB1*07:01,; also recorded: HLA-DRB1*09:01, HLA-DRB5*01:01"
3,YSHSMIRDLDFSNMG (listed as Leishmania infantum) [SEQ ID NO: 170],"HLA-DRB1*04:01, HLA-DRB1*04:05,; also recorded: HLA-DRB1*07:01, HLA-DRB1*08:02,; also recorded: HLA-DRB1*09:01, HLA-DRB1*12:01,; also recorded: HLA-DRB4*01:01"
4,SHSMIRDLDGSNMGL (SHSMIRDLDFSNMGL; listed as Leishmania infantum) [SEQ ID NO: 168],"HLA-DRB1*03:01, HLA-DRB1*04:01,; also recorded: HLA-DRB1*04:05, HLA-DRB1*08:02,; also recorded: HLA-DRB1*12:01, HLA-DRB4*01:01"
5,SDYSHSMIRDLDFSN (listed as Leishmania infantum) [SEQ ID NO: 166],"HLA-DRB1*04:05, HLA-DRB1*07:01,; also recorded: HLA-DRB1*12:01, HLA-DRB1*09:01,; also recorded: HLA-DRB4*01:01,; also recorded: HLA-DPA1*02:01/DPB1*14:01"
